Data from PMC4175002, “The Design and Synthesis of Potent and Selective Inhibitors of Trypanosoma brucei Glycogen Synthase Kinase 3 for the Treatment of Human African Trypanosomiasis” (Journal of Medicinal Chemistry, 2014).

Key:
Test in all cases: Mammalian kinase profiling (DSTT panel)
Assay type in all cases: biochemical
Settings in all cases: 10 μM; average percentage of remaining activity
YES1 = biological target: T1, YES1 (Homo sapiens, UniProt P07947)
T1 construct: purchased Division of Signal Transduction Therapy (DSTT), University of Dundee
T1 sequence (P07947 whole entry): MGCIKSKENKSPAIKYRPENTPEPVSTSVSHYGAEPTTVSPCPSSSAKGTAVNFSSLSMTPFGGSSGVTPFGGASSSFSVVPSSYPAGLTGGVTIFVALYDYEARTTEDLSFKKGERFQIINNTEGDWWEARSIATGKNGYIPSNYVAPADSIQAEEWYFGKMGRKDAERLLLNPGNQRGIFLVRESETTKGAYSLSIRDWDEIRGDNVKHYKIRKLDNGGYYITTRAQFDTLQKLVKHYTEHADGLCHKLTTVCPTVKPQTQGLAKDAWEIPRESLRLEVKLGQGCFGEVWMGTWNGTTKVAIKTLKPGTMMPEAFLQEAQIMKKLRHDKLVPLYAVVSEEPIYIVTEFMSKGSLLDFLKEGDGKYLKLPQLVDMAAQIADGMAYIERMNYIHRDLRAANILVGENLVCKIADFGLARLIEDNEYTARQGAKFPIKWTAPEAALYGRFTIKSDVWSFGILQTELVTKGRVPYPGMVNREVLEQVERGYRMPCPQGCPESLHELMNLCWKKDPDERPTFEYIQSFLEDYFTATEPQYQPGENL
Protocol: (§1) To assess the selectivity of the aminopyrazole inhibitors, remaining activity at 10 μM concentration was measured for compounds 4f, 4m, and 4y against a panel of 80 human PKs and for compound 9g against 124 human PKs. […] Compound 4m inhibited only two PKs, namely GSK3β and CDK2, at more than 80%.
(§2) Selected compounds were screened against a panel of mammalian kinases routinely run by the Division of Signal Transduction Therapy (DSTT) at the University of Dundee in duplicate at 10 μM.[32] Enzymes included in the panel and assay conditions are reported in the literature. All biochemical assays are run below the Km^app for the ATP for each enzyme, allowing comparison of inhibition across the panel.

VEG-FR = biological target: T2, VEG-FR (Homo sapiens, UniProt P17948)
T2 construct: purchased Division of Signal Transduction Therapy (DSTT), University of Dundee
T2 sequence (P17948 27-1338): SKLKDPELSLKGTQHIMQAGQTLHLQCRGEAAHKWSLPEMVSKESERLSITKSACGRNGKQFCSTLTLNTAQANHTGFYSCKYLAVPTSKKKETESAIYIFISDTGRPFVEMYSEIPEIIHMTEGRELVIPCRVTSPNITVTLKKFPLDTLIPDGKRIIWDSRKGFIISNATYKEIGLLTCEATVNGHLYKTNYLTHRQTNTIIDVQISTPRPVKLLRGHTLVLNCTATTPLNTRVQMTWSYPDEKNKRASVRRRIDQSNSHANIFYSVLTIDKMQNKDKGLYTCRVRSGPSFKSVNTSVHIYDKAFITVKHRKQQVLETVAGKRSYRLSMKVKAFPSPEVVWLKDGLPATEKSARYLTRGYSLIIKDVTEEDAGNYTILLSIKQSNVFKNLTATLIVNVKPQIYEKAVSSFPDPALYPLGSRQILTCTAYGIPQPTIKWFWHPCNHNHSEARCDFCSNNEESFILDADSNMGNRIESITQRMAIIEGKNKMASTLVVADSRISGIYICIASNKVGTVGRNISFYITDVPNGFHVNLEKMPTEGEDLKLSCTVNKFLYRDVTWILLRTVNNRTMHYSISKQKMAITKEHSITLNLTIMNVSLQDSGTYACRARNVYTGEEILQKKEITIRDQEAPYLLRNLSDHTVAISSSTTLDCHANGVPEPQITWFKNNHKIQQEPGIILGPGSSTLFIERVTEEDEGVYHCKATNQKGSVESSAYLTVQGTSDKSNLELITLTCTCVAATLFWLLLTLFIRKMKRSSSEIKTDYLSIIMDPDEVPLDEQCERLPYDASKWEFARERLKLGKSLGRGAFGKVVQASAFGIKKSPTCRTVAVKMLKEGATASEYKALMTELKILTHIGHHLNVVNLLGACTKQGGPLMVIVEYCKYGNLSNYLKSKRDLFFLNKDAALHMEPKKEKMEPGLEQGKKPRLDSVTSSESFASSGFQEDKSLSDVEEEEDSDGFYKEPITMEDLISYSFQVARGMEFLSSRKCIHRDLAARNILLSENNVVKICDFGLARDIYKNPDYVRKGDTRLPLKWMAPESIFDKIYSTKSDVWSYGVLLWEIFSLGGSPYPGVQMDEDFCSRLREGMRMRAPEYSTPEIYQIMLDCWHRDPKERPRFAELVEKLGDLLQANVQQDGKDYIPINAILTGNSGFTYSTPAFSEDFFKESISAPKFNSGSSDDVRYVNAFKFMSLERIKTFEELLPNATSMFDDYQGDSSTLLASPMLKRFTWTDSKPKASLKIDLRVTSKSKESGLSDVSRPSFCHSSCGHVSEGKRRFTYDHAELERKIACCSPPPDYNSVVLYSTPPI
Protocol: as §1, §2

EPH-B3 = biological target: T3, EPH-B3 (Homo sapiens, UniProt P54753)
T3 construct: purchased Division of Signal Transduction Therapy (DSTT), University of Dundee
T3 sequence (P54753 34-998): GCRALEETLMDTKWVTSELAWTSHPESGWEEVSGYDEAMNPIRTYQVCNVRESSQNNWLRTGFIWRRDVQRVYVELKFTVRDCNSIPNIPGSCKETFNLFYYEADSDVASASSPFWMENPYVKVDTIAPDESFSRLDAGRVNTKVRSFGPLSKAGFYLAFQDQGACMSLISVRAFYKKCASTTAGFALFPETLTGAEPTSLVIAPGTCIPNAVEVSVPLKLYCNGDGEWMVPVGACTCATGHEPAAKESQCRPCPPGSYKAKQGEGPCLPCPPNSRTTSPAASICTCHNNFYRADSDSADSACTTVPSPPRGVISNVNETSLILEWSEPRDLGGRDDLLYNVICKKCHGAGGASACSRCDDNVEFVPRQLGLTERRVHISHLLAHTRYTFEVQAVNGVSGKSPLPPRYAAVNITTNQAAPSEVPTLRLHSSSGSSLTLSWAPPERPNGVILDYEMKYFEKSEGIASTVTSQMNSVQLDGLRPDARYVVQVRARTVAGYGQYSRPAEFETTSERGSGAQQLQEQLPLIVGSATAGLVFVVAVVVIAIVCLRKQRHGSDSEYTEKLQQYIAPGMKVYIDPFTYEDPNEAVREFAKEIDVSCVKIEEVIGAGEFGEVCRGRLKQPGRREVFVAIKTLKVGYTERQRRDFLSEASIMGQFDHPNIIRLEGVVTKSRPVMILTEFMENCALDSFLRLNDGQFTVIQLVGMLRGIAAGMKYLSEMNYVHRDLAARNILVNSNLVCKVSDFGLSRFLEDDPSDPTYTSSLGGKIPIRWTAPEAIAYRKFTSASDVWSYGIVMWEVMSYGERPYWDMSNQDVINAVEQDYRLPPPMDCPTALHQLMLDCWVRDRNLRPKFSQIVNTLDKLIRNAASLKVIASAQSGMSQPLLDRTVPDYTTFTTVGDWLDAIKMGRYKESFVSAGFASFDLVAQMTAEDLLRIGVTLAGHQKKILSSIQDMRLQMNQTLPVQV
Protocol: as §1, §2

CK1 = biological target: T4, CK1 (Homo sapiens, UniProt P48730)
T4 construct: purchased Division of Signal Transduction Therapy (DSTT), University of Dundee
T4 sequence (P48730 whole entry): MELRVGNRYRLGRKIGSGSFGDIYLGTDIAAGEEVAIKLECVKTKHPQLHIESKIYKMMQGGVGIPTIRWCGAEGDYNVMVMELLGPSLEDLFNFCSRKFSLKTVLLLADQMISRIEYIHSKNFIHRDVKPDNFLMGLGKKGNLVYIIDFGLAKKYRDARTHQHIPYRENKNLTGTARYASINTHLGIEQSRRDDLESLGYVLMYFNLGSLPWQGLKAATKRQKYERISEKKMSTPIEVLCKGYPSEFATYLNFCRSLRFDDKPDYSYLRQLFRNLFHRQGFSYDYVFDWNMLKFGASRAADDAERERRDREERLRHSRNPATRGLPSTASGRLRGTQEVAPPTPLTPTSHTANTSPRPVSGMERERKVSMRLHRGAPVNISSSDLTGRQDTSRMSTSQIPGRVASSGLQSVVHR
Protocol: as §1, §2

PAK5 = biological target: T5, PAK5 (Homo sapiens, UniProt Q9P286)
T5 construct: purchased Division of Signal Transduction Therapy (DSTT), University of Dundee
T5 sequence (Q9P286 whole entry): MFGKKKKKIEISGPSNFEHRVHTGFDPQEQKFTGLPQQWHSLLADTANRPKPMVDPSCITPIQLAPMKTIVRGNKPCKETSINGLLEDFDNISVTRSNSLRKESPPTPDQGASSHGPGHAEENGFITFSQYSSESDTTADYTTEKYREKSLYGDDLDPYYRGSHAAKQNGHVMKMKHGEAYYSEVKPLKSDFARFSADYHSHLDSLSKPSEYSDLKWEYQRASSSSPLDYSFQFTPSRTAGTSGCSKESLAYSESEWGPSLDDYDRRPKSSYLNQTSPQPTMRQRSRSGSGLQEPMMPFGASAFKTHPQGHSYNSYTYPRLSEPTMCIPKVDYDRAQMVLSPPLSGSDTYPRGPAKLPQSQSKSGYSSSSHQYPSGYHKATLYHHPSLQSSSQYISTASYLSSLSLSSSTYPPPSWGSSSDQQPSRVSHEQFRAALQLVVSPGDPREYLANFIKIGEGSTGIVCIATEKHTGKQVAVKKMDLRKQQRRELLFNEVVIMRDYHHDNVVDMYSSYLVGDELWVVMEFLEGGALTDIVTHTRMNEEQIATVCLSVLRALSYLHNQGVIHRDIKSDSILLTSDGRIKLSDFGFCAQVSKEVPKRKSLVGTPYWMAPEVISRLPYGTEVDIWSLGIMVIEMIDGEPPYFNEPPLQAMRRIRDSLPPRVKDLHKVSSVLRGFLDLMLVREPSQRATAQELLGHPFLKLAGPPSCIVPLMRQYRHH
Protocol: as §1, §2

PIM2 = biological target: T6, PIM2 (Homo sapiens, UniProt Q9P1W9)
T6 construct: purchased Division of Signal Transduction Therapy (DSTT), University of Dundee
T6 sequence (Q9P1W9 whole entry): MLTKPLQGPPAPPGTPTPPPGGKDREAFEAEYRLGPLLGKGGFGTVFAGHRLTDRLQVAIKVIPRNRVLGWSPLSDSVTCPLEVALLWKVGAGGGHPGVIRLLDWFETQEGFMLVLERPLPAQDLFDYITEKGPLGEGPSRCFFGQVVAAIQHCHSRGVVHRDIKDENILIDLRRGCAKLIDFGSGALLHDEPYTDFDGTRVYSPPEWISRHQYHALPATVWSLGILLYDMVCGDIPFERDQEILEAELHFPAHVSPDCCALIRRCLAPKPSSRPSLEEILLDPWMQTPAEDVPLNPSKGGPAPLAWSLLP
Protocol: as §1, §2

NEK2a = biological target: T7, NEK2a (Homo sapiens, UniProt P51955)
T7 construct: purchased Division of Signal Transduction Therapy (DSTT), University of Dundee
T7 sequence (P51955 1-445): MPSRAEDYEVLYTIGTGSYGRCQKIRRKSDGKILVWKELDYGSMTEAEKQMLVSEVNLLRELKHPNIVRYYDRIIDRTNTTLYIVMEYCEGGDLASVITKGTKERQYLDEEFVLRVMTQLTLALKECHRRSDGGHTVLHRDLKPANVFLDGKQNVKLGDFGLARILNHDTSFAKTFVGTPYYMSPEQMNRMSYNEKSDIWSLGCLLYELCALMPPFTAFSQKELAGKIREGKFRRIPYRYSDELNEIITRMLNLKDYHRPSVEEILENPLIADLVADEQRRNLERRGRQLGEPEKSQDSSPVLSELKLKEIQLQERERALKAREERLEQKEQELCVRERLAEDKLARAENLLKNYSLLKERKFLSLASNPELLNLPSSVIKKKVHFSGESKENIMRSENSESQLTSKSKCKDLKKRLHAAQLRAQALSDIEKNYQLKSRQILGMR
Protocol: as §1, §2

P38g MAPK = biological target: T8, P38g MAPK (Homo sapiens, UniProt P53778)
T8 construct: purchased Division of Signal Transduction Therapy (DSTT), University of Dundee
T8 sequence (P53778 1-367): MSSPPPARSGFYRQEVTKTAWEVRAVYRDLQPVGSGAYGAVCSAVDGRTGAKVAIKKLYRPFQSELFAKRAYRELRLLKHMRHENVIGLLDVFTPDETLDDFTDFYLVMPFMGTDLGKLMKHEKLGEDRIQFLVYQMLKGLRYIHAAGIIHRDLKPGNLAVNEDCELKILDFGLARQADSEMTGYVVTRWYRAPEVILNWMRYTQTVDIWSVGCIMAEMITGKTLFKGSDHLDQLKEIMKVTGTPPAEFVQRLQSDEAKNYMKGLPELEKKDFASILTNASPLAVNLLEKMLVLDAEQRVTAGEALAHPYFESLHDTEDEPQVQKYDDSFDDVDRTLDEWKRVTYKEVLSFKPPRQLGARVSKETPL
Protocol: as §1, §2

PKA = biological target: T9, PKA (Homo sapiens, UniProt P17612)
T9 construct: purchased Division of Signal Transduction Therapy (DSTT), University of Dundee
Protocol: as §1, §2

PAK4 = biological target: T10, PAK4 (Homo sapiens, UniProt O96013)
T10 construct: purchased Division of Signal Transduction Therapy (DSTT), University of Dundee
T10 sequence (O96013 whole entry): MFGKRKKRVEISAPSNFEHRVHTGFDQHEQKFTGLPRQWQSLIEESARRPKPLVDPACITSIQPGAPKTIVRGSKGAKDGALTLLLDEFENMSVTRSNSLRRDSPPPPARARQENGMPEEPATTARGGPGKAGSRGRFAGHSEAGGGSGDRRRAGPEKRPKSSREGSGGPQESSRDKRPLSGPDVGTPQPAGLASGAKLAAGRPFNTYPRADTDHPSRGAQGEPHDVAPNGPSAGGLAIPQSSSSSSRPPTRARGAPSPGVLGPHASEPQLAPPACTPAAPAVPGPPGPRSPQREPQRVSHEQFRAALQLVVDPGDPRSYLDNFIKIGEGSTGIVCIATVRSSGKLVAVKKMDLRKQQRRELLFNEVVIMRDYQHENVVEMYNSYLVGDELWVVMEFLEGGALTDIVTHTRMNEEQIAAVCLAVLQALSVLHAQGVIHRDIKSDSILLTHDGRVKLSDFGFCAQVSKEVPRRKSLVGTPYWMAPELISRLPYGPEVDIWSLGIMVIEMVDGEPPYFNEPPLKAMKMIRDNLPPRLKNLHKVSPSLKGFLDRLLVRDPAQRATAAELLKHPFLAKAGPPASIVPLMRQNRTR
Protocol: as §1, §2

| SMILES | YES1 activity compared to the control (YES1) [%] | VEG-FR activity compared to the control (VEG-FR) [%] | EPH-B3 activity compared to the control (EPH-B3) [%] | CK1 activity compared to the control (CK1) [%] | PAK5 activity compared to the control (PAK5) [%] | PIM2 activity compared to the control (PIM2) [%] | NEK2a activity compared to the control (NEK2a) [%] | P38g MAPK activity compared to the control (P38g MAPK) [%] | PKA activity compared to the control (PKA) [%] | PAK4 activity compared to the control (PAK4) [%] |
| --- | --- | --- | --- | --- | --- | --- | --- | --- | --- | --- |
| CO[C@H]1CC[C@H](NC(=O)c2n[nH]cc2NC(=O)c2ccccc2)CC1 [Compound 4f, 4-Benzamido-N-(4-methoxycyclohexyl)-1H-pyrazole-3-carboxamide] | 100 | 52 | 60 | 55 | 68 | 90 | 100 | 60 | 81 | 68 |
| COc1cccc(OC)c1C(=O)Nc1c[nH]nc1C(=O)NC1CCC(OC)CC1 (stereo not drawn) [Compound 4m, 4-(2,6-Dimethoxybenzamido)-N-(4-methoxycyclohexyl)-1H-pyrazole-3-carboxamide] | 79 | 90 | 100 | 88 | 75 | 97 | 99 | 72 | 74 | 74 |
| CO[C@H]1CC[C@H](NC(=O)c2n[nH]cc2NC(=O)c2ccc(-c3ccccc3)o2)CC1 [Compound 4y, N-(4-Methoxycyclohexyl)-4-(5-phenylfuran-2-carboxamido)-1H-pyrazole-3-carboxamide] | 45 | 29 | 72 | 25 | 47 | 82 | 69 | 24 | 76 | 27 |
